Laboratory results reported in patent publication US6124290A, “Polycyclic phthalazine compounds and their use” (Gruenenthal GmbH, priority 1996, dated 2000).
≈ marks a conversion by molar mass, not a printed value. Like-named read-outs stand apart in the source and are kept apart here.

Assays:
[1] = test system: Staphylococcus aureus 134/94; experiment: MIC, micro-broth dilution test according to DIN 58 940 (Part 8); assay type: cell-based; conditions: for MIC: Staphylococcus aureus, read-out: MIC, Staphylococcus aureus 134/94
Experimental: (§1) The minimum inhibiting concentration (MIC) of the compounds was tested, in a micro-broth dilution test according to DIN 58 940 (Part 8), against the following bacterial strains: Staphylococcus aureus, strains 8325-4 (a sensitive Staphylococcus aureus strain which is representative of the species), NCTC 6571 (a sensitive international control strain), 108/83 (an "old" MRSA without quinolone-resistance), 134/94 (a "new" MRSA, with quinolone-resistance), Staphylococcus epidermidis CCM 2124 (a sensitive control strain), Enterococcus faecium 70/90 (a vancomycin-resistant strain) and 64/3 (a sensitive strain). The known substances vancomycin, teicoplanin and ciprofloxacin were used for comparison in the tests, even though they are structurally different.

[2] = test system: Staphylococcus aureus 108/83; experiment: as above; assay type: cell-based; conditions: for MIC: Staphylococcus aureus, read-out: MIC, Staphylococcus aureus 108/83
Experimental: as §1

[3] = test system: Staphylococcus aureus 8325-4; experiment: as above; assay type: cell-based
Experimental: as §1

[4] = background section; cited from earlier work
[5] = test system: Enterococcus faecium 64/3; experiment: MIC, micro-broth dilution test according to DIN 58 940 (Part 8); assay type: cell-based; conditions: for MIC: Enterococcus faecium
Experimental: as §1, with “strain).” for “strain). The known substances vancomycin, teicoplanin and ciprofloxacin were used for comparison in the tests, even though they are structurally different.”

[6] = test system: Staphylococcus aureus NCTC 6571; experiment: as above; assay type: cell-based; conditions: NCTC6571, sensitive international control strain
Experimental: as §1

[7] = test system: Staphylococcus epidermidis CCM 2124; experiment: as above; assay type: cell-based; conditions: for MIC: Staphylococcus epidermidis
Experimental: as §1

[8] = test system: Enterococcus faecium 70/90; experiment: as above; assay type: cell-based; conditions: for MIC: Enterococcus faecium
Experimental: as §1

[9] = "new" MRSA, with quinolone-resistance
[10] = "old" MRSA, without quinolone-resistance
[11] = 83254, sensitive Staphylococcus aureus strain, representative of the species, read-out: MIC, Staphylococcus aureus 8325-4
[12] = 64/3, sensitive strain, read-out: MIC, Enterococcus faecium 64/3
[13] = CCM2124, sensitive control strain, read-out: MIC, Staphylococcus epidermidis CCM 2124
[14] = 70/90, vancomycin-resistant strain, read-out: MIC, Enterococcus faecium 70/90
[15] = CCM2124, read-out: MIC, Staphylococcus epidermidis CCM 2124
[16] = Staphylococcus aureus, 83254, read-out: MIC, Staphylococcus aureus 8325-4

## CCC(C(=O)O)n1ncc2cc3c(c(O)c2c1=O)-c1c(O)c2c(c(OC)c1CC3)C(=O)c1c(cc(O)c(C)c1O)C2=O (racemic) [Substance 4]
[1]; [9]
  MIC: 16 µg/mL (≈ 27.9 µM)
[2]; [10]
  MIC: 32 µg/mL (≈ 55.9 µM)
[3]; [11]
  MIC: 63 µg/mL (≈ 110 µM)

## COc1c2c(c(O)c3c1C(=O)c1c(cc(O)c(C)c1O)C3=O)-c1c(cc3c(c1O)C(=O)OC3O)CC2 (stereo not shown) [Madurahydroxylactone, 3,9,11,14,15-pentahydroxy-10-methyl-7-methoxy-1,8,13-trioxo-1,3,5,6,8,13-hexahydro-naphthaceno-[1,2-f]-benzoisofurane]
[4]
  biological efficacy: unsatisfactory biological efficacy

## COc1c2c(c(O)c3c1C(=O)c1c(cc(O)c(C)c1O)C3=O)-c1c(cc3cnn(-c4ccc(C(=O)O)cc4)c(=O)c3c1O)CC2 [Substance 1]
[5]; [12]
  MIC: 500 µg/mL (≈ 824 µM)
[1]; [9]
  MIC: 500 µg/mL (≈ 824 µM)
[2]; [10]
  MIC: 250 µg/mL (≈ 412 µM)
[6]
  MIC: < 125 µg/mL
[7]; [13]
  MIC: < 125 µg/mL
[8]; [14]
  MIC: 500 µg/mL (≈ 824 µM)
[3]; [11]
  MIC: 500 µg/mL (≈ 824 µM)

## COc1c2c(c(O)c3c1C(=O)c1c(cc(O)c(C)c1O)C3=O)-c1c(cc3cnn(CC(=O)O)c(=O)c3c1O)CC2 [Substance 3, 10,12, 15,16-tetrahydroxy-8-methoxy-2-carboxynmethyl-11-methyl-1,9,14-trioxo-1,2,6,7,9,14-hexahydro-naphthaceno-[1,2-g]-phthalazine]
[5]; [12]
  MIC: 500 µg/mL (≈ 918 µM)
[1]; [9]
  MIC: 250 µg/mL (≈ 459 µM)
[2]; [10]
  MIC: 63 µg/mL (≈ 116 µM)
[6]
  MIC: < 125 µg/mL
[7]; [13]
  MIC: < 125 µg/mL
[8]; [14]
  MIC: 2000 µg/mL (≈ 3670 µM)
[3]; [11]
  MIC: 63 µg/mL (≈ 116 µM)

## O=C(O)c1cn(C2CC2)c2cc(N3CCNCC3)c(F)cc2c1=O [ciprofloxacin]
[1]; MRSA
  MIC: 16000 µg/mL (≈ 48300 µM)
[2]; MRSA
  MIC: 250 µg/mL (≈ 754 µM)
[7]; [15]
  MIC: 250 µg/mL (≈ 754 µM)
[8]; 70/90, read-out: MIC, Enterococcus faecium 70/90
  MIC: 1000 µg/mL (≈ 3020 µM)
[3]; [16]
  MIC: 250 µg/mL (≈ 754 µM)

## CN[C@H](CC(C)C)C(=O)N[C@H]1C(=O)N[C@@H](CC(N)=O)C(=O)N[C@H]2C(=O)N[C@H]3C(=O)N[C@H](C(=O)N[C@H](C(=O)O)c4cc(O)cc(O)c4-c4cc3ccc4O)[C@H](O)c3ccc(c(Cl)c3)Oc3cc2cc(c3O[C@@H]2O[C@H](CO)[C@@H](O)[C@H](O)[C@H]2O[C@H]2C[C@](C)(N)[C@H](O)[C@H](C)O2)Oc2ccc(cc2Cl)[C@H]1O [vancomycin]
[5]; 64/3, read-out: MIC, Enterococcus faecium 64/3
  MIC: < 250 µg/mL
[1]; MRSA
  MIC: 500 µg/mL (≈ 345 µM)
[2]; MRSA
  MIC: 500 µg/mL (≈ 345 µM)
[7]; [15]
  MIC: 500 µg/mL (≈ 345 µM)
[3]; [16]
  MIC: 500 µg/mL (≈ 345 µM)

## teicoplanin
[5]; sensitive strain
  MIC, Enterococcus faecium 64/3: < 250 µg/mL
[1]; [9]
  MIC, Staphylococcus aureus 134/94: 500 µg/mL
[2]; [10]
  MIC, Staphylococcus aureus 108/83: 500 µg/mL
[7]; sensitive control strain
  MIC, Staphylococcus epidermidis CCM 2124: 500 µg/mL
[8]; vancomycin-resistant strain
  MIC, Enterococcus faecium 70/90: 256000 µg/mL
[3]; sensitive Staphylococcus aureus strain, representative of the species
  MIC, Staphylococcus aureus 8325-4: 500 µg/mL
